Results reported in BindingDB's records for doi:10.1021/acs.jmedchem.7b01492 (Peking University, 2019).

Target: Neuronal acetylcholine receptor subunit alpha-7 (Homo sapiens, UniProt P36544)
Assay: Positive allosteric modulation of human alpha7 nAChR expressed in Xenopus laevis oocytes assessed as increase in acetylcholine-induced channel current by measuring acetylcholine EC50 at 10 uM at -90 mV holding potential preincubated for 2 mins followed by co-application with acetylcholine for 10 secs by two-electrode voltage clamp method (Rvb = 256.4 +/- 20.1 uM)

Neuronal acetylcholine receptor subunit alpha-7, sequence (P36544 whole entry): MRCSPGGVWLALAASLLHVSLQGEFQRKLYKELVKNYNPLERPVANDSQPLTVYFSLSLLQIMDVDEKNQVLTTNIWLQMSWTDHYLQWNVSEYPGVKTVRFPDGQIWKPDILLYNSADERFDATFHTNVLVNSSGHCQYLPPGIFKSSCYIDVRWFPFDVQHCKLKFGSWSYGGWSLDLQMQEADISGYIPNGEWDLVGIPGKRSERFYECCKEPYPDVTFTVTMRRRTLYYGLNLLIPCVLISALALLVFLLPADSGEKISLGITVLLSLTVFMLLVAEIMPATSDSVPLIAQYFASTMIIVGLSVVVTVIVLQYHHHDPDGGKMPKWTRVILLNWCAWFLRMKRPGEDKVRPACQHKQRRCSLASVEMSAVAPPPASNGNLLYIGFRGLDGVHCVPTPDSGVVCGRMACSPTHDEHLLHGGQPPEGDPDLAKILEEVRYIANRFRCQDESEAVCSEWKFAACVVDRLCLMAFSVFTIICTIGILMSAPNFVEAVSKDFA

Cc1cccc(Cl)c1-n1cnc2nc(SCc3ccccc3)sc2c1=O
EC50: 187 µM
